Tested on: Melan-a melanocytes
Experiment: Assay for melanin production in melan-a melanocytes (absorbance of melanin at 490 nm per protein)
Format: cell-based, mice
Details: at 3 μM; average; results of FIG. 1
Experimental: Melan-a melanocytes (α/α, P/P), an immortalized melanocyte line derived from C57BLI6J mice wild type at the p locus (Bennett et al. (1987), Int. J. Cancer 39:414-418), were incubated in Dulbecco's modification of Eagle's medium (DMEM: 10% fetal calf serum, 2 mM L-glutamine, 1 mM sodium pyruvate, 1% MEM non-essential amino acids 100×, […]). Immediately before using the medium, tetradecanoyl phorbol acetate (TPA) was added at 200 nM. Cells were seeded in T-25 flasks with 4×10^4 cells/ml×4.5 ml/flask (10-20% confluent) and were grown at 37° C. with 5% CO2. Twenty-four hours later, a compound to be tested (diluted in 0.5 ml media) was added to the media. Forty-eight hours after the addition of drug, both the media and drug were changed. Cells were harvested after an additional 48 or 72 hours (100% confluent). In harvesting the cells, the reagents and cells were kept at 4° C. Briefly, the media was removed from the cells, and one milliliter of media was reserved if needed for the tyrosinase assay. The cells were then rinsed with approximately 500 μl cold 1×phosphate buffered saline (PBS) until the PBS rinse was clear. […] 2 N NaOH in 20% DMSO was used as a blank, and the samples were read at a wavelength of 490 nm. The data were reported as absorbance of melanin per protein calculated for the total sample. […]

`C/C=C/C/C=C/CCC(=O)[C@H]1O[C@H]1C(N)=O` [cerulenin, [2R,3S]-2,3-epoxy-4-oxo-7,10-trans, trans-dodecanoic acid amide] was tested, and the “decrease of pigmentation in melan-a melanocytes” value was 50%.
